Results: ChEMBL document CHEMBL1909046, “DrugMatrix in vitro pharmacology data”

Tests used:
[1] = target: Beta-1 adrenergic receptor (Homo sapiens, UniProt P08588); assay: DRUGMATRIX: Adrenergic beta1 radioligand binding (ligand: [125I] Cyanopindolol); format: cell membranes, CHO-K1, Membrane; settings: cho-k1; Not Active = under 50% inhibition at 10 µM
[2] = target: T1, Type-2 angiotensin II receptor (Homo sapiens, UniProt P50052); format: cell-based; settings: cho-k1; note: in other assays of this panel Not Active means under 50% inhibition at 10 µM
T1 sequence (P50052 whole entry): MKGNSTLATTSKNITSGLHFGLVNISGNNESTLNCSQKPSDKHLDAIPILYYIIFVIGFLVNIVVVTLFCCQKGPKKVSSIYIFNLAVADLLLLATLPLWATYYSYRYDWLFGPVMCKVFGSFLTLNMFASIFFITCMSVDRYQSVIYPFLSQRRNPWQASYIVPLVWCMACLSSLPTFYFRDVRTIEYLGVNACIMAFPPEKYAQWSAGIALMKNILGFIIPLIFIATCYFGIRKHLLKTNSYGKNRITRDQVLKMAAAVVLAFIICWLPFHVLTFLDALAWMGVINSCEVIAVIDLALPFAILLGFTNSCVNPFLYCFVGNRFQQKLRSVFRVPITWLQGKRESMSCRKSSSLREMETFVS

[3] = target: T2, Calcitonin receptor (Homo sapiens, UniProt P30988); format: cell membranes, Membrane; settings: t47d; note: in other assays of this panel Not Active means under 50% inhibition at 10 µM
T2 sequence (P30988 whole entry): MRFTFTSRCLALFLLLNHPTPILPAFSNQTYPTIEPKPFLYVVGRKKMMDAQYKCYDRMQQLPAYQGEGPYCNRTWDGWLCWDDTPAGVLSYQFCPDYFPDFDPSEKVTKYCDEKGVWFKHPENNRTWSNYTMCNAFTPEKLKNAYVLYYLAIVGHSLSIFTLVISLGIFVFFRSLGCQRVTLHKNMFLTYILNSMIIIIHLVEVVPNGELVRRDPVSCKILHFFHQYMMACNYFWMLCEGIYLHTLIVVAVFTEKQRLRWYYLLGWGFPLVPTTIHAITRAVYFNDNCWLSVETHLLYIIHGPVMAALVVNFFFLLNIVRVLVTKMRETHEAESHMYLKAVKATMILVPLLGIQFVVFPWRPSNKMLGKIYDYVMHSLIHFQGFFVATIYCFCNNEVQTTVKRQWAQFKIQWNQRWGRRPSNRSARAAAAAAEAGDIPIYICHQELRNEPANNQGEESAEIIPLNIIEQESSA

[4] = target: Vascular endothelial growth factor receptor 1 (Homo sapiens, UniProt P17948); format: cell-based; settings: huvec; note: in other assays of this panel Not Active means under 50% inhibition at 10 µM
[5] = target: Prostaglandin G/H synthase 1 (Homo sapiens, UniProt P23219); assay: biochemical; format: tissue-based, Platelet; settings: platelet;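 note: inhibition of COX-1 enzyme activity, with arachidonic acid supplied as substrate; in other assays of this panel Not Active means under 50% inhibition at 10 µM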
[6] = DRUGMATRIX: Glutamate, NMDA, Agonism radioligand binding (ligand: [3H] CGP-39653); format: cell membranes, Rattus norvegicus, Wistar, Cerebral cortex, Membrane; settings: Not Active = under 50% inhibition at 10 µM
[7] = target: Insulin receptor (Rattus norvegicus, UniProt P15127); format: cell membranes, Wistar, Liver, Membrane; note: in other assays of this panel Not Active means under 50% inhibition at 10 µM
[8] = target: Protein phosphatase 3 catalytic subunit alpha (Homo sapiens, UniProt Q08209); set-up: species or system Escherichia coli

Chain of Beta-1 adrenergic receptor (P08588 whole entry): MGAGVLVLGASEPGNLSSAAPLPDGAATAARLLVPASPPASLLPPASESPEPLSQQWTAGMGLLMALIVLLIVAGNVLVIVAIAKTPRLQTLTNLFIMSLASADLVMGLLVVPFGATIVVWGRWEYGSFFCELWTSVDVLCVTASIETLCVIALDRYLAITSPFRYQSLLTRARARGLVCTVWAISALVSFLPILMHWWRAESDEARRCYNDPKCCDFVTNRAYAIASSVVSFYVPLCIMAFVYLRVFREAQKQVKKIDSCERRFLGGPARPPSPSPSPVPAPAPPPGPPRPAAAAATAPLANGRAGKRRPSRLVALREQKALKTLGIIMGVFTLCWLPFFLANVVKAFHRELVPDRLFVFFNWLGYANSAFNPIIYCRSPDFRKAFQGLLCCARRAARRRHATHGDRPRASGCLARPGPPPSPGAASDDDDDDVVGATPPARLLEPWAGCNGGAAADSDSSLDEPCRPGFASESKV
Chain of Vascular endothelial growth factor receptor 1 (P17948 whole entry): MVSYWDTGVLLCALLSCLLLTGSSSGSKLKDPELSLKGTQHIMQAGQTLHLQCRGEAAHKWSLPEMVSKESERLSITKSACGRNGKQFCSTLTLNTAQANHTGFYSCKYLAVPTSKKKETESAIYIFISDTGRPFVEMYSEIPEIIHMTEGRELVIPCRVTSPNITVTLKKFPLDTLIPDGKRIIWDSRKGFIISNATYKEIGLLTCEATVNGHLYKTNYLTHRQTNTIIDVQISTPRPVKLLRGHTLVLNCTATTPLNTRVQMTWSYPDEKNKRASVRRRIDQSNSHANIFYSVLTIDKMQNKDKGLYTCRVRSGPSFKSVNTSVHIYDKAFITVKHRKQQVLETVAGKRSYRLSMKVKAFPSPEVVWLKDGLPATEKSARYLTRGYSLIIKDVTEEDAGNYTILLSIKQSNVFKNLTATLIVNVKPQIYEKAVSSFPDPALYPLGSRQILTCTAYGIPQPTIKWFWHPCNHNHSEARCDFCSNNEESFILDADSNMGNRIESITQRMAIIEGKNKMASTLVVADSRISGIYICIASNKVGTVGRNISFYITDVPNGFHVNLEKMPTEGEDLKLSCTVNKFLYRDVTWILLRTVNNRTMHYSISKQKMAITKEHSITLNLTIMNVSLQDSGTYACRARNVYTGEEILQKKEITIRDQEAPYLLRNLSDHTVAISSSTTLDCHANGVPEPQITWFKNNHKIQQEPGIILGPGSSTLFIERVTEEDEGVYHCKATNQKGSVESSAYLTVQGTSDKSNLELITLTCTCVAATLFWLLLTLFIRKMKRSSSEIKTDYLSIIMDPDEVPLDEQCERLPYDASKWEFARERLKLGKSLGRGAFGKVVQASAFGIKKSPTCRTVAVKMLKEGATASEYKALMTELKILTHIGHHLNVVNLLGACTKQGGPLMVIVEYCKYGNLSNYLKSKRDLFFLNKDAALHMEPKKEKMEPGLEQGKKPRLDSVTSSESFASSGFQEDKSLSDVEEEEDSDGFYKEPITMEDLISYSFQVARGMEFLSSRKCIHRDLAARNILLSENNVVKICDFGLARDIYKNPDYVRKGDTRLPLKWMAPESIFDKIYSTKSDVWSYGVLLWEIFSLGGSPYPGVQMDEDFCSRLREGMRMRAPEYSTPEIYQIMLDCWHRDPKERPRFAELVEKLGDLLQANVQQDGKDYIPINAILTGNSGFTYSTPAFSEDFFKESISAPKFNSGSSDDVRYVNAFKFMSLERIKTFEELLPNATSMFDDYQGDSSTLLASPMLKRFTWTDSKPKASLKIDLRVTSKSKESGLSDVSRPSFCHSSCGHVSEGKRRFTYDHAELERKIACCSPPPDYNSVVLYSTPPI
Chain of Insulin receptor (P15127 27-759 limits assumed): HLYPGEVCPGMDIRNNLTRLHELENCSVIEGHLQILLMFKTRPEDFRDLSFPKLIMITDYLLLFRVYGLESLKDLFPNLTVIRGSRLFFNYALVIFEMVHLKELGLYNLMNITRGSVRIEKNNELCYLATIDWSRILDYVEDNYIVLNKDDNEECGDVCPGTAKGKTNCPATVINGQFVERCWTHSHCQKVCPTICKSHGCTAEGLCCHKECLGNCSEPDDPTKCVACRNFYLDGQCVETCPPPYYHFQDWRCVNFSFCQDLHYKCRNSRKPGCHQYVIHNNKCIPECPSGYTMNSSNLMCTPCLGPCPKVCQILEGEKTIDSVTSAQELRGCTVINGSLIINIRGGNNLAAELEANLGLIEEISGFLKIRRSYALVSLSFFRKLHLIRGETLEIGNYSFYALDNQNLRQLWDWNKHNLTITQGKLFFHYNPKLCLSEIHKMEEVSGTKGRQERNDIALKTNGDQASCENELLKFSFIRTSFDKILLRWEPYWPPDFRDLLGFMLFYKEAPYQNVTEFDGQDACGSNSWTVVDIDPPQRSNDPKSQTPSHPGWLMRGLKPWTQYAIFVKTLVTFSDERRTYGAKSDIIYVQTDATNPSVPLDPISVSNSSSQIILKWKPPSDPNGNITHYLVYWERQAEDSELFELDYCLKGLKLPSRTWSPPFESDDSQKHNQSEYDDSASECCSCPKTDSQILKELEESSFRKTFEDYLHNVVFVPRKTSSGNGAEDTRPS
Chain of Insulin receptor (P15127 764-1383 limits assumed): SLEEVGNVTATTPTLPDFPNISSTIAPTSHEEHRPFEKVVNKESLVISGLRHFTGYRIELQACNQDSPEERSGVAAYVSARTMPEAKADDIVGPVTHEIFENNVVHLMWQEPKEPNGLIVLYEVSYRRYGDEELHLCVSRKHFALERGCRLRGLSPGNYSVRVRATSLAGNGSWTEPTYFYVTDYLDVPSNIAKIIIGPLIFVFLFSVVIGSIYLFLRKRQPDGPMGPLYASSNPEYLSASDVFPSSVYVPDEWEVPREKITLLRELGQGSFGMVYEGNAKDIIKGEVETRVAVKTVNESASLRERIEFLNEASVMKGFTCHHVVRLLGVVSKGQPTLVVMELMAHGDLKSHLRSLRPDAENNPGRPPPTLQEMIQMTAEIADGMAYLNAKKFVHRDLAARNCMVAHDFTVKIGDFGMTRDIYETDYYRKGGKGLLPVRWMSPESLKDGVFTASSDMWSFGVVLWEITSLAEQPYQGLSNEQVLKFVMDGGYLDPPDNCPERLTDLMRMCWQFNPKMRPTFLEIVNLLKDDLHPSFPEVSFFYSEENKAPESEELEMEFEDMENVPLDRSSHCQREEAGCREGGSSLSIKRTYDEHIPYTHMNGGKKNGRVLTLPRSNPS
Chain of Prostaglandin G/H synthase 1 (P23219 whole entry): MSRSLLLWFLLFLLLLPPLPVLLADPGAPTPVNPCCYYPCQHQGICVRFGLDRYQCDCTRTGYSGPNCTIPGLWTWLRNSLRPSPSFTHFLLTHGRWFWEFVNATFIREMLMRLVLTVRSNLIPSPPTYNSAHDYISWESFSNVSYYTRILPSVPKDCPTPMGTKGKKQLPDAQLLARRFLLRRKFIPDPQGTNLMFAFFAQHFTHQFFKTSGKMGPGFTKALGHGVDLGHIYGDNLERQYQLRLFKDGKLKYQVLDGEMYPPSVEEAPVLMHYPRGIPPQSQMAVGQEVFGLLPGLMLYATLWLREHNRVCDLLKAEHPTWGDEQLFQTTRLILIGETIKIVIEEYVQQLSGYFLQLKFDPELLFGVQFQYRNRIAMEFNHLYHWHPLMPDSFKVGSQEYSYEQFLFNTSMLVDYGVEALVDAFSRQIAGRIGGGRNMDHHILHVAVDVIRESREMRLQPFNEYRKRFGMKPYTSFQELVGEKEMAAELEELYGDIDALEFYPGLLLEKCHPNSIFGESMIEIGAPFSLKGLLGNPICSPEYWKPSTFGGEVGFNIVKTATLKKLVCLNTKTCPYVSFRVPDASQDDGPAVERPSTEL

C[N+]1(C)[C@@H]2C[C@@H](OC(=O)[C@H](CO)c3ccccc3)C[C@H]1[C@@H]1O[C@@H]12.[Br-] [METHSCOPOLAMINE BROMIDE]
Not Active: IC50 [1] | IC50 [2] | IC50 [3] | IC50 [4] | IC50 [5] | IC50 [6] | Ki [6] | IC50 [7] | IC50 [8]

CCN(CC)CCNC(=O)c1cc(Cl)c(N)cc1OC [METOCLOPRAMIDE]
Not Active: IC50 [1] | IC50 [2] | IC50 [3] | IC50 [4] | IC50 [5] | IC50 [6] | Ki [6] | IC50 [7] | IC50 [8]

CC[C@H](C)C(=O)O[C@H]1CCC=C2C=C[C@H](C)[C@H](CC[C@@H]3C[C@@H](O)CC(=O)O3)[C@H]21 [MEVASTATIN]
Not Active: IC50 [1] | IC50 [2] | IC50 [3] | IC50 [4] | IC50 [5] | IC50 [6] | Ki [6] | IC50 [7] | IC50 [8]

CC#C[C@]1(O)CC[C@H]2[C@@H]3CCC4=CC(=O)CCC4=C3[C@@H](c3ccc(N(C)C)cc3)C[C@@]21C [MIFEPRISTONE]
Not Active: IC50 [1] | IC50 [2] | IC50 [3] | IC50 [4] | IC50 [5] | IC50 [6] | Ki [6] | IC50 [7] | IC50 [8]

Cc1[nH]c(=O)c(C#N)cc1-c1ccncc1 [MILRINONE]
Not Active: IC50 [1] | IC50 [2] | IC50 [3] | IC50 [4] | IC50 [5] | IC50 [6] | Ki [6] | IC50 [7] | IC50 [8]

CO[C@@]12[C@H](COC(N)=O)C3=C(C(=O)C(C)=C(N)C3=O)N1C[C@@H]1N[C@@H]12 [MITOMYCIN]
Not Active: IC50 [1] | IC50 [2] | IC50 [3] | IC50 [4] | IC50 [5] | IC50 [6] | Ki [6] | IC50 [7] | IC50 [8]

CCOc1cc(N)c(Cl)cc1C(=O)NCC1CN(Cc2ccc(F)cc2)CCO1 (stereo unspecified) [MOSAPRIDE]
Not Active: IC50 [1] | IC50 [2] | IC50 [3] | IC50 [4] | IC50 [5] | IC50 [6] | Ki [6] | IC50 [7] | IC50 [8]

CCN(CC)N=O [N-NITROSODIETHYLAMINE]
Not Active: IC50 [1] | IC50 [2] | IC50 [3] | IC50 [4] | IC50 [5] | IC50 [6] | Ki [6] | IC50 [7] | IC50 [8]

O=C1CC[C@@]2(O)[C@H]3Cc4ccc(O)c5c4[C@@]2(CCN3CC2CC2)[C@H]1O5 [NALTREXONE]
Not Active: IC50 [1] | IC50 [2] | IC50 [3] | IC50 [4] | IC50 [5] | IC50 [6] | Ki [6] | IC50 [7] | IC50 [8]

CC(N)C12CC3CC(CC(C3)C1)C2 (stereo unspecified) [RIMANTADINE]
Not Active: IC50 [1] | IC50 [2] | IC50 [3] | IC50 [4] | IC50 [5] | IC50 [6] | Ki [6] | IC50 [7] | IC50 [8]

C=CCc1ccc2c(c1)OCO2 [SAFROLE]
Not Active: IC50 [1] | IC50 [2] | IC50 [3] | IC50 [4] | IC50 [5] | IC50 [6] | Ki [6] | IC50 [7] | IC50 [8]

CCC(C)(C)C(=O)O[C@H]1C[C@@H](C)C=C2C=C[C@H](C)[C@H](CC[C@@H]3C[C@@H](O)CC(=O)O3)[C@H]21 [SIMVASTATIN]
Not Active: IC50 [1] | IC50 [2] | IC50 [3] | IC50 [4] | IC50 [5] | IC50 [6] | Ki [6] | IC50 [7] | IC50 [8]

O=[As][O-].[Na+] [SODIUM ARSENITE]
Not Active: IC50 [1] | IC50 [2] | IC50 [3] | IC50 [4] | IC50 [5] | IC50 [6] | Ki [6] | IC50 [7] | IC50 [8]

C1CCN2C[C@@H]3C[C@@H](CN4CCCC[C@@H]34)[C@H]2C1 [SPARTEINE]
Not Active: IC50 [1] | IC50 [2] | IC50 [3] | IC50 [4] | IC50 [5] | IC50 [6] | Ki [6] | IC50 [7] | IC50 [8]

C[C@]12CCC(=O)C[C@@H]1CC[C@@H]1[C@@H]2CC[C@]2(C)[C@@H](O)CC[C@@H]12 [STANOLONE]
Not Active: IC50 [1] | IC50 [2] | IC50 [3] | IC50 [4] | IC50 [5] | IC50 [6] | Ki [6] | IC50 [7] | IC50 [8]

Cc1cn([C@H]2C=C[C@@H](CO)O2)c(=O)[nH]c1=O [STAVUDINE]
Not Active: IC50 [1] | IC50 [2] | IC50 [3] | IC50 [4] | IC50 [5] | IC50 [6] | Ki [6] | IC50 [7] | IC50 [8]

CC1(C)[C@H](C(=O)O)N2C(=O)C[C@H]2S1(=O)=O [SULBACTAM]
Not Active: IC50 [1] | IC50 [2] | IC50 [3] | IC50 [4] | IC50 [5] | IC50 [6] | Ki [6] | IC50 [7] | IC50 [8]

Cc1ccnc(NS(=O)(=O)c2ccc(N)cc2)n1 [SULFAMERAZINE]
Not Active: IC50 [1] | IC50 [2] | IC50 [3] | IC50 [4] | IC50 [5] | IC50 [6] | Ki [6] | IC50 [7] | IC50 [8]

Cc1nnc(NS(=O)(=O)c2ccc(N)cc2)s1 [SULFAMETHIZOLE]
Not Active: IC50 [1] | IC50 [2] | IC50 [3] | IC50 [4] | IC50 [5] | IC50 [6] | Ki [6] | IC50 [7] | IC50 [8]
